In US20180371550A1, “LOSS OF TRANSCRIPTIONAL FIDELITY LEADS TO IMMUNOTHERAPY RESISTANCE IN CANCERS” (Children's Hospital Medical Center, priority 2015, published 2018):

Key:
Cal51 cells [1] = test: STAT1 activation after IFN-α stimulation in flavopiridol-treated cells; format: cell-based; details: flavopiridol for 48 hours, then IFN-α for 30 minutes, FIG. 15H
Experimental: Total proteins were extracted with RIPA buffer (Santa Cruz Biotechnology, sc-24948), and 15 μg protein from each sample was run in a 4-18% SDS polyacrylamide gel (Bio-Rad), and transferred onto polyvinylidene difluoride membranes. The membranes were blocked in 5% dry milk in tris-buffered saline—Tween 20 for 1 hour. Blocked membranes were incubated overnight with primary antibodies against pSer5-RNA polymerase II (1:1000, Active motif), pSer2-RNA polymerase II (1:1000, Active motif), RNA polymerase II (1:1000, Active motif), SETD2 (1:1000, abcam), CyclinT1 (1:1000, Santa Cruz), H3K36me3 (1:5000, abcam), H3K27me3 (1:5000, Active motif), Pan-acetyl-H3 (1:5000, Cell Signaling), Histone H3 (1:5000, Cell Signaling), pMAPK (1;1000, Cell Signaling), MAPK (1;1000, Cell Signaling), pAKT (1:1000, Cell Signaling), STAT1 (1:1000, Cell Signaling), pSTAT1 (1:1000, Cell Signaling), NF-κB (1:1000, Cell Signaling), pNF-κB (1:1000), Cleaved-PARP(1:1000, Cell Signaling), Caspase-3 (1;1000, Cell Signaling), β-Actin (1;1000, Cell Signaling), GAPDH (1:1000, Cell Signaling) in 5% bovine serum albumin. After washing and incubating with the appropriate secondary antibody (anti-rabbit IgG or anti-Rat IgG (1:5000, Cell signaling)), protein signals were detected with enhanced chemiluminescence (Millipore). […]

Cal51 cells [2] = test: Cytotoxicity assay: relative viability after FasL stimulation with flavopiridol pre-treatment; format: cell-based; details: 24 hours FasL, 48 hour pre-treatment with 100 μM flavopiridol, FIG. 15I
Experimental: Equal number of cells was seeded into the wells of 96-well culture plates in their corresponding medium and incubated overnight in a 5% CO2 humidified incubator. Cells were then treated with different concentrations of hhis6FasL (0.1 ng/ml-1000 ng/ml) in the presence of 10 μg/ml anti-His antibody (Cell Signaling) for 24 hours. Dead cells were removed by washing with PBS buffer and the attached cells were fixed and stained with crystal violet solution [20% methanol, 0.5% crystal violet (Sigma) in 1× phosphate-buffered saline (PBS)] for 30 min. Excess stain was removed by gently rinsing the plates in tap water, and the plates were dried at room temperature. Crystal violet crystals were redissolved in Triton (Amresco), and cell density was determined by measuring the absorbance at 570 nm in a microplate reader (Bio-Tek Instruments).

[3] = system: B16/F10 mouse melanoma cells; test: Testing NK-mediated tumor cell killing in vivo (lung seeding of B16-OVA cells); parameters: species or system C57BL6 mice; details: FIG. 15J
Experimental: C57Bl/6 mice were injected with control or flavopiridol (100 μM) treated 2×10^5 B16-OVA cells into tail veins. One hour later, the lungs were harvested, digested in liberase and the frequency of tumor cells was assessed using quantitative PCR (Shehata et al., 2015). mRNA levels for OVA (B16-OVA) were assessed and normalized to GAPDH. […] Six mice for each group were used. The protocol and use of mice were performed with the approval of the Cincinnati Children's Institutional Animal Care and Use Committee.

Cal51 and T47D cells = test: Immunoblot of RNAP II and histone marks in cells treated with flavopiridol; format: cell-based; details: increasing sublethal doses of flavopiridol for 48 hours, FIG. 15G
Experimental: Total proteins were extracted with RIPA buffer (Santa Cruz Biotechnology, sc-24948), and 15 μg protein from each sample was run in a 4-18% SDS polyacrylamide gel (Bio-Rad), and transferred onto polyvinylidene difluoride membranes. The membranes were blocked in 5% dry milk in tris-buffered saline—Tween 20 for 1 hour. Blocked membranes were incubated overnight with primary antibodies against pSer5-RNA polymerase II (1:1000, Active motif), pSer2-RNA polymerase II (1:1000, Active motif), RNA polymerase II (1:1000, Active motif), SETD2 (1:1000, abcam), CyclinT1 (1:1000, Santa Cruz), H3K36me3 (1:5000, abcam), H3K27me3 (1:5000, Active motif), Pan-acetyl-H3 (1:5000, Cell Signaling), Histone H3 (1:5000, Cell Signaling), pMAPK (1;1000, Cell Signaling), MAPK (1;1000, Cell Signaling), pAKT (1:1000, Cell Signaling), STAT1 (1:1000, Cell Signaling), pSTAT1 (1:1000, Cell Signaling), NF-κB (1:1000, Cell Signaling), pNF-κB (1:1000), Cleaved-PARP(1:1000, Cell Signaling), Caspase-3 (1;1000, Cell Signaling), β-Actin (1;1000, Cell Signaling), GAPDH (1:1000, Cell Signaling) in 5% bovine serum albumin. After washing and incubating with the appropriate secondary antibody (anti-rabbit IgG or anti-Rat IgG (1:5000, Cell signaling)), protein signals were detected with enhanced chemiluminescence (Millipore).

Structure (SMILES): CN1CC[C@H](c2c(O)cc(O)c3c(=O)cc(-c4ccccc4Cl)oc23)[C@H](O)C1 [flavopiridol]
- response to pro-inflammatory stimuli (STAT1 activation) (Cal51 cells [1]): resistance to pro-inflammatory stimuli
- relative viability after FasL challenge (Cal51 cells [2]): resistance to pro-inflammatory stimuli and FasL challenge
- lung seeding of B16 cells (OVA mRNA normalized to GAPDH, qPCR) ([3]; B16-OVA cells treated with flavopiridol (100 μM), tail vein injection into C57Bl/6 mice, lungs after 1 hour, vs control cells): significantly increased the ability of B16 cells for lung seeding
- lung seeding of B16 cells in NK-depleted mice ([3]; as E4, mice pre-injected with anti-asialo GM1 (NK depletion)): the effect was diminished
- RNAP II and histone marks (epigenetic and transcriptional defects) (Cal51 and T47D cells): widespread epigenetic and transcriptional defects
